The subject of assay [1] is Septoria tritici. Kind of assay: Use Example G6: protective activity against Septoria leaf blotch of wheat (Septtr P1), % infection. To be noted: 150 ppm, protective spray, after 21 days, untreated control 60% infected. It is filed as in vivo. The method, then:
(§1) The active compounds were prepared separately or jointly as a stock solution with 25 mg of active compound which was made up to 10 ml using a mixture of acetone and/or DMSO and the emulsifier Wettol EM 31 (wetting agent having emulsifying and dispersing action based on ethoxylated alkylphenols) in a volume ratio of solvent:emulsifier of 99:1. The mixture was then made up with water to 100 ml. This stock solution was diluted with the solvent/emulsifier/water mixture described to give the active compound concentration stated below. Alternatively, the active compounds were used as a commercial finished formulation and diluted with water to the stated active compound concentration.
(§2) Leaves of potted wheat seedlings were sprayed to runoff point with an aqueous suspension having the active compound concentration stated below. 24 hours after the spray coating had dried on, they were inoculated with an aqueous spore suspension of Septoria tritici. The test plants were then placed in a greenhouse at temperatures between 18 and 22° C. and a relative atmospheric humidity close to 100% for 4 days and then at temperatures between 18 and 22° C. and an atmospheric humidity of about 70%. After 21 days, the extent of the development of the disease was determined visually in % infection of the total leaf area.

The subject of assay [2] is Phakopsora pachyrhizi. Kind of assay: Use Example G7: curative activity against soybean rust (Phakpa K3), % infection. It is filed as in vivo. To be noted: 150 ppm, curative spray two days after inoculation, further 10 days, untreated control 80% infected. The method, then:
as §1
Leaves of potted soybean seedlings were inoculated with a spore suspension of soybean rust (Phakpsora pachyrhizi). The pots were then placed in a chamber of high atmospheric humidity (90 to 95%) and 20 to 24° C. for 24 hours. During this time, the spores germinated and the germ tubes penetrated into the leaf tissue. The infected plants were then cultivated further in a greenhouse at temperatures between 23 and 27° C. and 60 to 80% relative atmospheric humidity. […] The extent of the rust fungus development on the leaves was then determined visually in % infection.

The test system of a further assay is Pyricularia oryzae. The class given is cell-based. Particulars: alone.
Assay [3] has as its system Septoria tritici. Kind of assay: Use Example M4: activity against Septoria leaf spot pathogen in the microtiter test (Septtr). The class given is cell-based. To be noted: alone.
The next assay relates to Pyrenophora teres. Nature of the assay: Use Example M5: activity against Pyrenophora teres in the microtiter test (Pymte). It is filed as cell-based. To be noted: alone.
For assay [4], the system named is Phytophthora infestans. It is filed as in vivo. Particulars: alone, untreated control 86 % infection.
Assay [5] deals with Phakopsora pachyrhizi. Nature of the assay: Use Example G3: curative activity against soybean rust (Phakpa K4). It is filed as in vivo. To be noted: alone, untreated control 76 % infection. The method, then: as §1
(§3) The visually determined values for the percentage of infected leaf area were initially converted into a mean value and then converted into efficancies in % of the untreated control. An efficacy of 0 means the same degree of infection as in the untreated control, an efficacy of 100 means 0% infection.
Leaves of potted soybean seedlings were inoculated with a spore suspension of soybean rust (Phakpsora pachyrhizi). The pots were then placed in a chamber of high atmospheric humidity (90 to 95%) and 20 to 24° C. for 24 hours. During this time, the spores germinated and the germ tubes penetrated into the leaf tissue. The infected plants were then cultivated further in a greenhouse at temperatures between 23 and 27° C. and 60 to 80% relative atmospheric humidity. After three days, the plants were sprayed to runoff point with the active compound solution described above at the active compound concentration stated below. After the spray coating had dried on, the test plants were cultivated in a greenhouse at temperatures between 23 and 27° C. and 60 to 80% relative atmospheric humidity for a further 10 days. The extent of the rust fungus development on the leaves was then determined visually in % infection.

Another assay relates to Puccinia recondita. Kind of assay: Use Example G4: protective activity against brown rust of wheat (Puccrt P1). The class given is in vivo. To be noted: alone, untreated control 79 % infection. The method, then:
as §1, §3
Leaves of potted wheat seedlings were sprayed to runoff point with an aqueous suspension having the active compound concentration stated below. The next day, the treated plants were inoculated with a spore suspension of brown rust of wheat (Puccinia recondita). The plants were then placed in a chamber of high atmospheric humidity (90 to 95%) at 20 to 24° C. for 24 hours. During this time, the spores germinated and the germ tubes penetrated into the leaf tissue. The next day, the test plants were returned to the greenhouse and cultivated at temperatures between 20 and 24° C. and 65 to 70% relative atmospheric humidity for a further 7 days. The extent of the rust fungus development on the leaves was then determined visually.

In assay [6] the test system is Septoria tritici. Nature of the assay: Use Example G5: protective activity against Septoria leaf blotch of wheat (Septtr P1). To be noted: alone, untreated control 83 % infection. It is filed as in vivo. The method, then: as §1, §3, §2
Assay [7] concerns Phytophthora infestans. It is filed as cell-based. Particulars: single active compound.
Assay [8] concerns Botrytis cinerea. Nature of the assay: Use Example M2: activity against gray mold pathogen in the microtiter test (Botrci). It is filed as cell-based. Particulars: single active compound.
Assay [9] relates to Septoria tritici. Nature of the assay: Comparison No. C1: activity against Septoria leaf blotch pathogen in the microtiter test (Septtr). Particulars: relative growth, active compound-free control = 100%.
Procedure: An aqueous malt-based spore suspension of Septoria tritici was then added. The plates were placed in a water vapor-saturated chamber at a temperature of 18° C. Using an absorption photometer, the MTPs were measured at 405 nm on day 7 after the innoculation.
Assay [10] relates to Botrytis cinerea. Kind of assay: Use Example G1: gray mold on bell pepper leaves, protective application (Botrci P1). The class given is in vivo. Particulars: 1 ppm, alone; untreated control 86 % infection. The method, then:
as §1, §3
Bell pepper seedlings were after 2-3 leaves were well developed, sprayed to runoff point with an aqueous suspension having the active compound concentration stated below. The next day, the treated plants were inoculated with a spore suspension of Botrytis cinerea in a 2% biomalt solution. […] After 5 days, the extent of the fungal infection on the leaves could be determined visually in %.

Molecules are shown by their SMILES. Where two headings read alike, the source gives them in different places.

With `N#CSc1ncnn1C[C@]1(c2ccc(F)cc2)O[C@H]1c1ccccc1Cl` (relative stereo) [I-6, trans-1-[3-(2-chlorophenyl)-2-(4-fluorophenyl)oxiranylmethyl]-5-thiocyanato-1H-[1,2,4]triazole], the “infection (% infection of the total leaf area)” value in the assay with Septoria tritici [1] is given as 0%. In addition, the “infection (rust fungus development on the leaves, % infection)” value in the assay on Phakopsora pachyrhizi [2] amounted to 0%.
`Fc1ccc([C@]2(Cn3cncn3)O[C@H]2c2ccccc2Cl)cc1` (racemic) [epoxiconazole]: the Observed effect was found to be 0 with Pyricularia oryzae (ternary table, 0.016 ppm); 6 in the assay on Septoria tritici [3] (0.004 ppm); 22 with Septoria tritici [3] (0.016 ppm); 0% with Pyrenophora teres (0.004 ppm); 0% in the assay on Pyrenophora teres (0.016 ppm); 1% with Phytophthora infestans [4] (1 ppm). The Observed effect in the assay with Phakopsora pachyrhizi [5] (0.063 ppm) was 63%; in the assay with Puccinia recondita (0.016 ppm), 0%; with Septoria tritici [6] (1 ppm), 24%.
As for `CC(=O)Sc1ncnn1C[C@]1(c2ccc(F)cc2)O[C@H]1c1ccccc1Cl` (relative stereo) [I-3, trans-S-{2-[3-(2-chlorophenyl)-2-(4-fluorophenyl)oxiranylmethyl]-2H-[1,2,4]triazol-3-yl}thioacetate], the Observed effect in the assay with Phytophthora infestans [7] (63 ppm) turned out to be 43%; in the assay on Botrytis cinerea [8] (16 ppm) it was 15%; with Pyricularia oryzae (16 ppm), 8; with Pyricularia oryzae (63 ppm), 62; in the assay with Septoria tritici [3] (1 ppm), 3.
The molecule `CNC(=O)/C(=N/OC)c1ccccc1COc1cc(C)ccc1C` [dimoxystrobin] registered an Observed effect with Pyrenophora teres (0.004 ppm) of 4%.
Take `CCSc1ncnn1C[C@]1(c2ccc(F)cc2)O[C@H]1c1ccccc1Cl` (relative stereo) [I-18, trans-1-[3-(2-chlorophenyl)-2-(4-fluorophenyl)oxiranylmethyl]-5-ethylsulfanyl-1H-[1,2,4]triazole]: the “Growth in % at 8 ppm for Septtr” value with Septoria tritici [9] turned out to be 39%.
Take `O=C(Nc1ccccc1-c1ccc(Cl)cc1)c1cccnc1Cl` [boscalid]: the Observed effect stood at 4% in the assay on Phytophthora infestans [7] (4 ppm); 20% with Phytophthora infestans [7] (16 ppm); 8 in the assay with Pyricularia oryzae (16 ppm); 0 in the assay with Pyricularia oryzae (ternary table, 4 ppm); 10 in the assay with Septoria tritici [3] (ternary table, 0.063 ppm); 0% with Puccinia recondita (0.063 ppm). The molecule also displayed an Observed effect in the assay with Septoria tritici [6] (4 ppm) of 10%.
As to `Cc1cc(C)nc(Nc2ccccc2)n1` [pyrimethanil], the Observed effect in the assay on Pyricularia oryzae (4 ppm) came to 47.
In the assay on Botrytis cinerea [8] (63 ppm), `Fc1ccc([C@@]2(Cn3ncnc3S)O[C@H]2c2ccccc2F)cc1` (relative stereo) [I-8, trans-2-[2-(4-fluorophenyl)-3-(2-fluorophenyl)oxiranylmethyl]-2H-[1,2,4]triazole-3-thiole] registered an Observed effect of 24%.
Turning to `N#Cc1c(Cl)c(Cl)c(Cl)c(C#N)c1Cl` [chlorothalonil], the Observed effect with Pyricularia oryzae (ternary table, 0.063 ppm) is on record as 4; with Septoria tritici [3] (0.063 ppm), 3; in the assay with Septoria tritici [3] (ternary table, 0.063 ppm) it was 3.
`COC(=O)Nc1nc2ccccc2[nH]1` [carbendazim]: in the assay with Pyrenophora teres (0.004 ppm), the Observed effect was 0%.
Regarding `CO/N=C(/C(=O)OC)c1ccccc1COc1ccccc1C` [kresoxim-methyl], in the assay on Phakopsora pachyrhizi [5] (1 ppm), the Observed effect worked out at 39%.
With `Fc1ccc([C@@]2(Cn3nc[nH]c3=S)O[C@H]2c2ccccc2Cl)cc1` (relative stereo) [I-1, trans-2-[3-(2-chlorophenyl)-2-(4-fluorophenyl)oxiranylmethyl]-2,4-dihydro-[1,2,4]triazole-3-thione], the Observed effect came out at 3 in the assay on Pyricularia oryzae (16 ppm); 2% in the assay with Pyrenophora teres (0.004 ppm); 5% in the assay on Pyrenophora teres (0.016 ppm); 0% with Phytophthora infestans [4] (1 ppm); 17% in the assay with Phakopsora pachyrhizi [5] (0.063 ppm); 0% in the assay with Puccinia recondita (0.016 ppm). Also, the Observed effect in the assay with Septoria tritici [6] (1 ppm) stood at 8%.
Turning to `CSc1ncnn1CC1(c2ccc(F)cc2)OC1c1ccccc1Cl` (stereo not shown) [Prior art (WO 96/38440)], in the assay with Septoria tritici [9], the “Growth in % at 8 ppm for Septtr” value was 65%.
In the case of `COC(=O)N(OC)c1ccccc1COc1ccn(-c2ccc(Cl)cc2)n1` [pyraclostrobin], the figures for the Observed effect in the assay on Phytophthora infestans [7] (16 ppm) and in the assay with Botrytis cinerea [10] were 16% and 1%, respectively.
With `Fc1ccccc1[C@@]1(Cn2nc[nH]c2=S)O[C@H]1c1ccccc1Cl` (relative stereo) [I-14, 2-[trans-3-(2-chlorophenyl)-2-(2-fluorophenyl)oxiranylmethyl]-2,4-dihydro-[1,2,4]triazole-3-thione], the Observed effect in the assay on Phytophthora infestans [7] (16 ppm) was 26%; in the assay on Pyricularia oryzae (16 ppm), 18; in the assay on Septoria tritici [3] (1 ppm), 0.
With `[Na+].[S-]c1ncnn1C[C@]1(c2ccccc2Cl)O[C@H]1c1ccccc1Cl` (relative stereo) [I-10, sodium 2-[trans-2,3-bis-(2-chlorophenyl)oxiranylmethyl]-2H-[1,2,4]triazole-3-thiolate], the results for the Observed effect in the assay with Phytophthora infestans [7] (16 ppm) and in the assay on Pyricularia oryzae (16 ppm) were 30% and 35, respectively.
For `S=c1[nH]cnn1C[C@]1(c2ccccc2)O[C@H]1c1ccccc1Cl` (relative stereo) [I-12, 2-[trans-3-(2-chlorophenyl)-2-phenyloxiranylmethyl]-2,4-dihydro-[1,2,4]triazole-3-thione], the Observed effect was determined as 7 with Pyricularia oryzae (16 ppm) and 16 in the assay on Pyricularia oryzae (63 ppm).
On to `CNC(=O)/C(=N/OC)c1ccccc1CO/N=C(C)/C(=N/OC)C(/C)=N/OC` [orysastrobin], for which the Observed effect in the assay with Botrytis cinerea [8] (0.016 ppm) was 1%; in the assay with Botrytis cinerea [8] (1 ppm), 2%; in the assay on Pyricularia oryzae (ternary table, 0.016 ppm), 2; with Septoria tritici [3] (ternary table, 0.004 ppm), 2.
In the case of `COC(=O)NC(=S)Nc1ccccc1NC(=S)NC(=O)OC` [thiophanate-methyl], the Observed effect in the assay on Phytophthora infestans [4] (63 ppm) came out at 0%; in the assay on Phakopsora pachyrhizi [5] (4 ppm) it was 8%.
